According to patent publication US9546393B2, “Mass spectrometry quantitation of P450 isoforms in hepatocytes” (DH Technologies Development Pte. Ltd., priority 2009, dated 2017):

Tests used:
CYP 1A2 [1] = settings: primary human hepatocytes, 72 hours; PB 1 mM, RIF 10 μM; FIG. 7
CYP 3A4 = CYP 3A4 induction in treated primary human hepatocytes (RNA assay, enzyme activity assay, LC-MSMS protein assay; FIG. 8); settings: 72 hours, 3-MC 2 μM, PB 1 mM
CYP 1A2 [2] = assay: RNA assay (mRNA by qRT-PCR, Taqman) for CYP 1A2 in treated human hepatocytes; format: cell-based; settings: primary human hepatocytes, 72 hours; 3-MC 2 μM; FIG. 7
CYP 2B6 = CYP 2B6 induction in treated primary human hepatocytes (RNA assay, enzyme activity assay, LC-MSMS protein assay; FIG. 6); format: cell-based; settings: 72 hours, 3-MC 2 μM
Procedure: Flow rate was 700 μL/min.
The PB is a prototypical inducer for CYP 2B6, by CAR nuclear receptor activation.

With `CCC1(c2ccccc2)C(=O)NC(=O)NC1=O` [PB, phenobarbital] the “changes in expression of CYP 1A2 (induction)” value (CYP 1A2 [1]) was “basal levels of 1A2, if any” and the “changes in expression of CYP 3A4 (induction)” value (CYP 3A4) was “significantly induces”.

`Cc1ccc2cc3c(ccc4ccccc43)c3c2c1CC3` [3-MC, 3-methylcholanthrene] was tested, and the “changes in expression of CYP 3A4 (induction)” value (CYP 3A4) was “minimally induces”, the “CYP 1A2 RNA level in RNA assay” value (CYP 1A2 [2]) was “very high levels of RNA” and the “changes in expression of CYP 2B6 (induction)” value (CYP 2B6) was “induces basal levels”.
